Where two headings read alike, the source gives them in different places.
Key:
[1] = acceptor medium of buffer pH 7.0
Protocol: The dosage unit prepared from formulation F6 were tested for ex-vivo permeation on porcine buccal mucosa in vertical Franz-cells.

[2] = cited from earlier work
[3] = cited from earlier work; for required dose for induction of anesthesia: 1% solution i.v.
[4] = in vivo; cited from earlier work

CC(C)c1cccc(C(C)C)c1O [propofol, 2,6-diisopropylphenol]
concentration of saturated solution [1]: about 167.8 μg/ml | blood level required for the sedative effect ([2]; Dhir et al., 2016): 1.5 to 2.0 µg/mL | average blood concentration required for anesthetic effect ([2]; major surgeries): 4.05 ± 1.01 µg/mL | blood concentration sufficient for anesthetic effect ([2]; minor surgical procedures): 2.97 ± 1.07 µg/mL | required dose for induction of anesthesia ([3]; adult patients aged less than 55 years): 1.5-2.5 mg/kg body weight | required dose for induction of anesthesia ([3]; children over 8 years): about 2.5 mg/kg body weight | rate of administration that maintains the anesthetic effect ([3]; adults under the age of 55): 4-12 mg/kg body weight/h | rate of administration that maintains the anesthesia ([3]; children over the age of 1 month): 9-15 mg/kg body weight/h | oral bioavailability [4]: very low

Source: US20230172848A1, “ORAL FILM FOR SAFE ADMINISTRATION OF API” (LABTEC GMBH, priority 2020, published 2023)
